From doi:10.1101/2019.12.17.868638v2 (biorxiv, 2019)

System: RlSQase* (sulfoquinovosidase, K375A/K376A SERp variant)
Conditions: 50 mM sodium phosphate, 150 mM NaCl, pH 7.2, 30 °C, 212 nM enzyme

With O=[N+]([O-])c1ccc(O[C@H]2O[C@H](CS(=O)(=O)O)[C@@H](O)[C@H](O)[C@H]2O)cc1 [PNPSQ] the Km was 680 ± 250 µM.
